Assay [1] deals with recombinant human p38α (Homo sapiens, UniProt Q16539). Kind of assay: Purified and activated recombinant human p38α HTRF kinase assay. The class given is biochemical. To be noted: 1 nM p38α, 50 μM ATP, GST-ATF2 substrate, read-out: p38a IC50. Here is the method: Purified and Activated Recombinant Human p38α Assay
• Kinase Reaction Buffer: Kinase reaction buffer for p38α HTRF assays consists of 50 mM Tris-pH 7.5, 5 mM MgCl2, 0.1 mg/mL BSA, 100 μM Na3VO4 and 0.5 mM DTT. • HTRF Detection Buffer: HTRF detection buffer contains 100 mM HEPES-pH 7.5, 100 mM NaCl, 0.1% BSA, 0.05% Tween-20, and 10 mM EDTA. • Serial Dilution of Compounds: Compounds were dissolved in 100% DMSO and serially diluted (3 fold, 10 point) in a polypropylene 96-well microtiter plate (drug plate). The final starting concentration of compounds in the p38α enzymatic assays was 1 μM. Columns 6 and 12 (HI controls and LO controls respectively) in the drug plate were reserved as controls and contained only DMSO. • Kinase Reaction The p38α kinase reactions were carried out in a polypropylene 96-well black round bottom assay plate in total volume of 30 μL kinase reaction buffer. Appropriate concentration of purified and activated enzyme (recombinant human) was mixed with indicated concentration of ATP and 100 nM GST-ATF2-Avitag, in the presence or absence (HI control) of Compound. See table below for actual concentrations. In the absence of substrate, the background was measured as LO control. The reaction was allowed to incubate for 1 hour at RT. • Assay Reagent Concentrations: The final reagent concentrations were 1 nM p38α and 50 μM ATP. […] After 60 minutes incubation at room temperature, the assay plate was read in a Discovery Plate Reader. The wells were excited with coherent 320 nm light and the ratio of delayed ([…] post excitation) emissions at […] (native europium fluorescence) and 665 nm (europium fluorescence transferred to allophycocyanin—an index of substrate phosphorylation) was determined (Park et al, 1999). • Data Analysis: The proportion of substrate phosphorylated in the kinase reaction in the presence of compound compared with that phosphorylated in the presence of DMSO vehicle alone (HI control) was calculated using the formula: % control (POC)=(compound−average LO)/(average HI−average LO)*100. Data (consisting of POC and inhibitor concentration in μM) was fitted to a 4-parameter equation (y=A+((B−A)/(1+((x/C)^D))), where A is the minimum y (POC) value, B is the maximum y (POC), C is the x (compound concentration) at the point of inflection and D is the slope factor, using a Levenburg-Marquardt non-linear regression algorithm.
The inhibition constant (Ki) of the inhibitor was estimated from the IC50 (compound concentration at the point of inflection C) using the Cheng-Prussof equation: Ki=IC50/(1+S/Km), where S is the ATP substrate concentration, and Km is the Michaelis constant for ATP as determined experimentally. All results were expressed as the mean±the standard error of the mean. Data acquisition and non-linear regression algorithms were performed using Activity Base v5.2 and XL-fit software v4.1 respectively. All data was archived using Activity Base v5.2 software.

Assay [2] deals with TNF-α secretion by LPS-treated THP1 cells. The experiment in a line: Lipopolysaccharide-activated THP1 cell TNF production assay. The class given is cell-based. Particulars: Homo sapiens, THP-1; LPS, 3 hours, THP1 cells; read-out: IC50 in the THP-1 cellular TNF production assay. Here is the method: Lipopolysaccharide-Activated THP1 Cell TNF Production Assay
THP1 cells were resuspended in fresh THP1 media (RPMI 1640, 10% heat-inactivated FBS, 1×PGS, 1×NEAA, plus 30 μM βME) at a concentration of 1.5×10^6 cells per mL. One hundred microliters of cells per well were plated in a polystyrene 96-well tissue culture plate. 1.5 micrograms per mL of bacterial LPS was prepared in THP1 media and transferred to the first 11 columns of a 96-well polypropylene plate. Column 12 contained only THP1 media for the LO control. Compounds were dissolved in 100% DMSO and serially diluted 3 fold in a polypropylene 96-well microtiter plate (drug plate). Columns 6 and 12 were reserved as controls (HI controls and LO controls respectively) and contained only DMSO. 10 μL of LPS followed by one microliter of inhibitor compound from the drug plate was transferred to the cell plate. The treated cells were induced to synthesize and secrete TNF-α in a 37° C. humidified incubator with 5% CO2 for 3 hours. Fifty microliters of conditioned media was transferred to a 96-well MULTI-ARRAY™ 96-well small spot plate—custom coated with MAB610 containing 100 μL of 2× Read Buffer P supplemented with 0.34 nM AF210NA polyclonal Ab labeled with ruthenium (MSD-Sulfo-TAG™-NHS ester). After an overnight incubation at room temperature with shaking, the reaction was read on the Sector Imager™ 6000. […] The amount of secreted TNF-α in the presence of AMG compounds compared with that in the presence of DMSO vehicle alone (HI control) was calculated using the formula: % control (POC)=(cpd−average LO)/(average HI−averageLO)*100. Data (consisting of POC and inhibitor concentration in μM) was fitted to a 4-parameter equation (y=A+((B−A)/(1+((x/C)^D))), where A is the minimum y (POC) value, B is the maximum y (POC), C is the x (cpd concentration) at the point of inflection and D is the slope factor) using a Levenburg-Marquardt non-linear regression algorithm.

Chain of recombinant human p38α (Q16539 whole entry): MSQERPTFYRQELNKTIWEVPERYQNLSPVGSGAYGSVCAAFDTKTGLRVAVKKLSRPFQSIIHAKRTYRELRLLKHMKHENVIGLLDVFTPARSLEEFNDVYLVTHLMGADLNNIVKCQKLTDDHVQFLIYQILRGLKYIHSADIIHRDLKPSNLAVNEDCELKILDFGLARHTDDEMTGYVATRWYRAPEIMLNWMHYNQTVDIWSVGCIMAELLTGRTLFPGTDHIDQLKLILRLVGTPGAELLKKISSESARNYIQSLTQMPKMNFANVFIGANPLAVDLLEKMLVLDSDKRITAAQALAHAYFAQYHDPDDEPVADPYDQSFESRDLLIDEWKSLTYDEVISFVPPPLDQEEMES

`Cc1c(F)cc(C(N)=O)cc1-c1cc2cnn(-c3ccccc3Cl)c2n(C)c1=O` [Example 1, 3-(1-(2-chlorophenyl)-7-methyl-6-oxo-6,7-dihydro-1H-pyrazolo[3,4-b]pyridin-5-yl)-5-fluoro-4-methylbenzamide]: the results for the 50% inhibitory concentration (IC50) in assay [1] and in assay [2] were 2.3 nM and not above 175 nM, respectively. In the same order, the values of `CCn1c(=O)c(-c2cc(C(=O)NC3CC3)cc(F)c2C)cc2cnn(-c3ccccc3F)c21` [Example 6, N-cyclopropyl-3-(7-ethyl-1-(2-fluorophenyl)-6-oxo-6,7-dihydro-1H-pyrazolo[3,4-b]pyridin-5-yl)-5-fluoro-4-methylbenzamide] are 2.5 nM and not above 175 nM. For `Cc1c(F)cc(C(=O)NC2CC2)cc1-c1cc2cnn(-c3ccccc3F)c2n(C)c1=O` [Example 9, N-cyclopropyl-3-fluoro-5-(1-(2-fluorophenyl)-7-methyl-6-oxo-6,7-dihydro-1H-pyrazolo[3,4-b]pyridin-5-yl)-4-methylbenzamide], in that order: 2.2 nM and not above 175 nM. On to `Cc1ccc(C(=O)Nc2ccnn2C)cc1-c1cc2cnn(-c3c(F)cccc3F)c2n(C)c1=O` [Example 10, 3-(1-(2,6-difluorophenyl)-7-methyl-6-oxo-6,7-dihydro-1H-pyrazolo[3,4-b]pyridin-5-yl)-4-methyl-N-(1-methyl-1H-pyrazol-5-yl)benzamide], for which the IC50 in assay [1] was 2.9 nM; in assay [2], not above 175 nM. For `Cc1c(F)cc(C(=O)NC2CC2)cc1-c1cc2cnn(-c3ccc(F)cc3F)c2n(C)c1=O` [Example 11, N-cyclopropyl-3-(1-(2,4-difluorophenyl)-7-methyl-6-oxo-6,7-dihydro-1H-pyrazolo[3,4-b]pyridin-5-yl)-5-fluoro-4-methylbenzamide], in that order: 2.6 nM and not above 175 nM. For `Cc1ccc(C(=O)NC2CC2)cc1-c1cc2cnn(-c3ccccc3C)c2n(C)c1=O` [Example 14, N-cyclopropyl-4-methyl-3-(7-methyl-1-(2-methylphenyl)-6-oxo-6,7-dihydro-1H-pyrazolo[3,4-b]pyridin-5-yl)benzamide], in that order: 4.2 nM and not above 175 nM. For the compound `Cc1ccccc1-n1ncc2cc(-c3cc(C(=O)NC4CC4)cc(F)c3C)c(=O)n(C)c21` [Example 15, N-cyclopropyl-3-fluoro-4-methyl-5-(7-methyl-1-(2-methylphenyl)-6-oxo-6,7-dihydro-1H-pyrazolo[3,4-b]pyridin-5-yl)benzamide], the concentration for half-maximal inhibition (IC50) in assay [1] is 5.2 nM; in assay [2] it was not above 175 nM. For the compound `Cc1c(F)cc(C(=O)NC2CC2)cc1-c1cc2cnn(C(C)C)c2n(C)c1=O` [Example 17, N-cyclopropyl-3-fluoro-4-methyl-5-(7-methyl-1-(1-methylethyl)-6-oxo-6,7-dihydro-1H-pyrazolo[3,4-b]pyridin-5-yl)benzamide], the IC50 in assay [2] was not above 175 nM.

Take `Cc1ccc(C(=O)Nc2ccon2)cc1-c1cc2cnn(-c3c(F)cccc3F)c2n(C)c1=O` [Example 18, 3-(1-(2,6-difluorophenyl)-7-methyl-6-oxo-6,7-dihydro-1H-pyrazolo[3,4-b]pyridin-5-yl)-N-3-isoxazolyl-4-methylbenzamide]: the IC50 in assay [1] was 3 nM; in assay [2], not above 175 nM. `Cn1c(=O)c(-c2cc(C(=O)NC3CC3)ccc2Cl)cc2cnn(-c3cc(F)ccc3F)c21` [Example 29, 4-chloro-N-cyclopropyl-3-(1-(2,5-difluorophenyl)-7-methyl-6-oxo-6,7-dihydro-1H-pyrazolo[3,4-b]pyridin-5-yl)benzamide]: the IC50 in assay [2] is not above 175 nM. On to `Cc1ccc(C(=O)NC2(C)CC2)cc1-c1cc2cnn(-c3c(F)cccc3F)c2n(C)c1=O` [Example 30, 3-(1-(2,6-difluorophenyl)-7-methyl-6-oxo-6,7-dihydro-1H-pyrazolo[3,4-b]pyridin-5-yl)-4-methyl-N-(1-methylcyclopropyl)benzamide], for which the IC50 in assay [2] was not above 175 nM.

Values taken from patent publication US7846944B2, “Pyrazolo-pyridinone compounds and methods of use thereof” (Amgen Inc., priority 2007, dated 2010).
